Values joined by “and” are separate entries in the source; they are usually repeats but may differ in a detail not shown here. Equal values may be shown once. Inconclusive results are not listed.
Test system: BDF1 mice, Friend leukemia sc, tumor weight T/C
Test: NCI In Vivo Anticancer Drug Screen. Data for tumor model Friend Virus Leukemia (Solid) (subcutaneous) in B6D2F1 (BDF1) mice
Conditions: endpoint: mean tumor weight, higher = larger tumour
Procedure: The antitumor activity of compounds was measured in mice bearing transplantable tumors. Survival or tumor size were measured and the results are expressed as the measurement made in the treated group (T) divided by the measurement made in the vehicle treated control group (C). The tumor model used in this assay is Friend Virus Leukemia (Solid) (subcutaneous) in B6D2F1 (BDF1) mice

[1] = dose: 50.0 mg/kg/injection, schedule: Q01DX011 (ip), vehicle: carboxymethylcellulose (CMC)
[2] = dose: 100.0 mg/kg/injection, schedule: Q01DX011 (ip), vehicle: saline
[3] = dose: 5.0 mg/kg/injection, schedule: Q01DX011 (ip), vehicle: carboxymethylcellulose (CMC)
[4] = dose: 62.0 mg/kg/injection, schedule: Q01DX011 (ip), vehicle: carboxymethylcellulose (CMC)
[5] = dose: 125.0 mg/kg/injection, schedule: Q01DX011 (ip), vehicle: carboxymethylcellulose (CMC)
[6] = dose: 15.0 mg/kg/injection, schedule: Q01DX011 (ip), vehicle: saline
[7] = dose: 45.0 mg/kg/injection, schedule: Q01DX011 (ip), vehicle: carboxymethylcellulose (CMC)
[8] = dose: 90.0 mg/kg/injection, schedule: Q01DX011 (ip), vehicle: carboxymethylcellulose (CMC)
[9] = dose: 180.0 mg/kg/injection, schedule: Q01DX011 (ip), vehicle: carboxymethylcellulose (CMC)

With `CCSCCC(N)C(=O)O` (stereo not drawn) the T/C (dose: 10.2 mg/kg/injection, schedule: Q01DX011 (ip), vehicle: carboxymethylcellulose (CMC)) was 114 % of control, the T/C (dose: 20.5 mg/kg/injection, schedule: Q01DX011 (ip), vehicle: carboxymethylcellulose (CMC)) was 80 % of control and the T/C (dose: 41.0 mg/kg/injection, schedule: Q01DX011 (ip), vehicle: carboxymethylcellulose (CMC)) was 109 % of control. The T/C (dose: 82.0 mg/kg/injection, schedule: Q01DX011 (ip), vehicle: carboxymethylcellulose (CMC)) was 111 % of control.
`O=C1NC2C(NC(=O)N2Cl)N1Cl` (stereo not drawn) was tested, and the T/C (dose: 20.0 mg/kg/injection, schedule: Q01DX011 (ip), vehicle: saline) was 105 % of control and the T/C (dose: 40.0 mg/kg/injection, schedule: Q01DX011 (ip), vehicle: saline) was 103 % of control.
`O=C(O)CC(O)(CC(=O)O)C(=O)O.[Ga]` was tested, and the T/C (dose: 25.0 mg/kg/injection, schedule: Q01DX011 (ip), vehicle: carboxymethylcellulose (CMC)) was 108 % of control and the T/C [1] was 104 % of control.
In the case of `OCC1OC(Oc2ccc(O)cc2)C(O)C(O)C1O` (stereo not drawn), the T/C (dose: 25.0 mg/kg/injection, schedule: Q01DX011 (ip), vehicle: saline) is reported as 84 % of control, the T/C (dose: 50.0 mg/kg/injection, schedule: Q01DX011 (ip), vehicle: saline) is reported as 97 % of control and the T/C [2] is reported as 97 % of control. For the same compound, the T/C (dose: 200.0 mg/kg/injection, schedule: Q01DX011 (ip), vehicle: saline) was 75 % of control.
In the case of `CCOC(=O)NP(=O)(N1CC1)N1CC1`, the T/C (dose: 2.87 mg/kg/injection, schedule: Q01DX011 (ip), vehicle: carboxymethylcellulose (CMC)) is reported as 78 % of control, the T/C (dose: 4.75 mg/kg/injection, schedule: Q01DX011 (ip), vehicle: carboxymethylcellulose (CMC)) is reported as 77 % of control and the T/C (dose: 9.5 mg/kg/injection, schedule: Q01DX011 (ip), vehicle: carboxymethylcellulose (CMC)) is reported as 36 % of control. The T/C (dose: 19.0 mg/kg/injection, schedule: Q01DX011 (ip), vehicle: carboxymethylcellulose (CMC)) was 5 % of control.
`O=C(O)CCc1c[nH]c2ccc(N(CCCl)CCCl)cc12` was tested, and the T/C (dose: 1.2 mg/kg/injection, schedule: Q01DX011 (ip), vehicle: carboxymethylcellulose (CMC)) was 107 % of control, the T/C (dose: 2.5 mg/kg/injection, schedule: Q01DX011 (ip), vehicle: carboxymethylcellulose (CMC)) was 92 % of control and the T/C [3] was 114 % of control.
With `CCOc1ccc2nc(S(N)(=O)=O)sc2c1` the T/C [4] was 77 % of control and the T/C [5] was 89 % of control.
`CN=C(N)c1ccc(N=C(N)c2ccc(C(N)=Nc3ccc(C(N)=NC)cc3)cc2)cc1` was tested, and the T/C (dose: 7.5 mg/kg/injection, schedule: Q01DX011 (ip), vehicle: saline) was 182 % of control, the T/C (dose: 10.0 mg/kg/injection, schedule: Q01DX011 (ip), vehicle: saline) was 183 % of control and the T/C [6] was 165 % of control.
For `Clc1ccc(C(c2ccccc2Cl)C(Cl)Cl)cc1` (stereo not drawn), the T/C (dose: 375.0 mg/kg/injection, schedule: Q01DX011 (sc), vehicle: steriod suspending solution) was 163 % of control, the T/C (dose: 500.0 mg/kg/injection, schedule: Q01DX011 (sc), vehicle: steriod suspending solution) was 210 % of control and the T/C (dose: 750.0 mg/kg/injection, schedule: Q01DX011 (sc), vehicle: steriod suspending solution) was 155 % of control.
`Cc1cc2nc3c(=O)[nH]c(=O)nc-3n(CC(O)C(O)C(O)C(O)CO)c2cc1C` (stereo not drawn) was tested, and the T/C (dose: 56.0 mg/kg/injection, schedule: Q01DX011 (ip), vehicle: carboxymethylcellulose (CMC)) was 103 % of control and the T/C (dose: 113.0 mg/kg/injection, schedule: Q01DX011 (ip), vehicle: carboxymethylcellulose (CMC)) was 110 % of control.
For `C=CC(=O)NCNC(=O)C=C`, the T/C [6] was 89 % of control, the T/C (dose: 30.0 mg/kg/injection, schedule: Q01DX011 (ip), vehicle: saline) was 84 % of control and the T/C (dose: 60.0 mg/kg/injection, schedule: Q01DX011 (ip), vehicle: saline) was 70 % of control and 51 % of control. The T/C (dose: 120.0 mg/kg/injection, schedule: Q01DX011 (ip), vehicle: saline) was 16 % of control and 39 % of control.
With `CC1CC(C)OS(=O)O1` (stereo not drawn) the T/C (dose: 44.0 mg/kg/injection, schedule: Q01DX011 (ip), vehicle: saline) was 70 % of control, the T/C [2] was 71 % of control and the T/C (dose: 150.0 mg/kg/injection, schedule: Q01DX011 (ip), vehicle: saline) was 85 % of control.
In the case of `Cc1cc(N(CCCl)CCCl)ccc1C=Nc1ccccc1-c1ccccc1`, the T/C [3] is reported as 54 % of control, the T/C (dose: 10.0 mg/kg/injection, schedule: Q01DX011 (ip), vehicle: carboxymethylcellulose (CMC)) is reported as 70 % of control and the T/C (dose: 20.0 mg/kg/injection, schedule: Q01DX011 (ip), vehicle: carboxymethylcellulose (CMC)) is reported as 104 % of control. The T/C (dose: 40.0 mg/kg/injection, schedule: Q01DX011 (ip), vehicle: carboxymethylcellulose (CMC)) was 60 % of control and the T/C (dose: 80.0 mg/kg/injection, schedule: Q01DX011 (ip), vehicle: carboxymethylcellulose (CMC)) was 77 % of control.
In the case of `Nc1ncnc2c1ncn2C1CCCO1` (stereo not drawn), the T/C [1] is reported as 111 % of control and the T/C (dose: 100.0 mg/kg/injection, schedule: Q01DX011 (ip), vehicle: carboxymethylcellulose (CMC)) is reported as 54 % of control.
For `Cc1c2ccc3ccccc3c2c[n+]2ccccc12`, the T/C (dose: 3.0 mg/kg/injection, schedule: Q01DX011 (ip), vehicle: carboxymethylcellulose (CMC)) was 97 % of control, the T/C (dose: 6.0 mg/kg/injection, schedule: Q01DX011 (ip), vehicle: carboxymethylcellulose (CMC)) was 105 % of control and the T/C (dose: 24.0 mg/kg/injection, schedule: Q01DX011 (ip), vehicle: carboxymethylcellulose (CMC)) was 61 % of control and 37 % of control.
For `CC(C)CCSc1nc(N)nc2nc[nH]c12`, the T/C (dose: 11.0 mg/kg/injection, schedule: Q01DX011 (ip), vehicle: carboxymethylcellulose (CMC)) was 59 % of control, the T/C (dose: 22.0 mg/kg/injection, schedule: Q01DX011 (ip), vehicle: carboxymethylcellulose (CMC)) was 38 % of control and the T/C [7] was 18 % of control and 21 % of control. For the same compound, the T/C [8] was 7 % of control and 21 % of control and the T/C [9] was 5 % of control.
For `O=c1c[n+](-c2ccccc2)[nH]o1`, the T/C (dose: 22.5 mg/kg/injection, schedule: Q01DX011 (ip), vehicle: carboxymethylcellulose (CMC)) was 89 % of control, the T/C [7] was 76 % of control and the T/C [8] was 74 % of control. For the same compound, the T/C [9] was 78 % of control.
With `O=C(N[C@H](CO)[C@H](O)c1ccc([N+](=O)[O-])cc1)C(Cl)Cl` the T/C (dose: 47.0 mg/kg/injection, schedule: Q01DX011 (ip), vehicle: carboxymethylcellulose (CMC)) was 105 % of control, the T/C (dose: 95.0 mg/kg/injection, schedule: Q01DX011 (ip), vehicle: carboxymethylcellulose (CMC)) was 98 % of control and the T/C (dose: 191.0 mg/kg/injection, schedule: Q01DX011 (ip), vehicle: carboxymethylcellulose (CMC)) was 77 % of control. The T/C (dose: 383.0 mg/kg/injection, schedule: Q01DX011 (ip), vehicle: carboxymethylcellulose (CMC)) was 108 % of control.
With `O=C(O)CCCc1ccc(N(CCCl)CCCl)cc1` the T/C (dose: 1.87 mg/kg/injection, schedule: Q01DX011 (ip), vehicle: carboxymethylcellulose (CMC)) was 93 % of control and the T/C (dose: 7.5 mg/kg/injection, schedule: Q01DX011 (ip), vehicle: carboxymethylcellulose (CMC)) was 76 % of control and 91 % of control.
`O=C(O)C(=O)c1ccc(-c2ccccc2)cc1` was tested, and the T/C [4] was 67 % of control and the T/C [5] was 45 % of control.
With `CCNc1nncs1` the T/C (dose: 8.62 mg/kg/injection, schedule: Q01DX011 (ip), vehicle: carboxymethylcellulose (CMC)) was 122 % of control, the T/C (dose: 17.25 mg/kg/injection, schedule: Q01DX011 (ip), vehicle: carboxymethylcellulose (CMC)) was 107 % of control and the T/C (dose: 34.5 mg/kg/injection, schedule: Q01DX011 (ip), vehicle: carboxymethylcellulose (CMC)) was 193 % of control. The T/C (dose: 69.0 mg/kg/injection, schedule: Q01DX011 (ip), vehicle: carboxymethylcellulose (CMC)) was 112 % of control.
`N=[N+]=CC(=O)OCC(N)C(=O)O` (stereo not drawn) was tested, and the T/C (dose: 0.38 mg/kg/injection, schedule: Q01DX011 (ip), vehicle: carboxymethylcellulose (CMC)) was 49 % of control, the T/C (dose: 0.75 mg/kg/injection, schedule: Q01DX011 (ip), vehicle: carboxymethylcellulose (CMC)) was 37 % of control and the T/C (dose: 1.5 mg/kg/injection, schedule: Q01DX011 (ip), vehicle: carboxymethylcellulose (CMC)) was 39 % of control and 44 % of control. The T/C (dose: 1.8 mg/kg/injection, schedule: Q01DX011 (ip), vehicle: carboxymethylcellulose (CMC)) was 108 % of control, the T/C (dose: 9.0 mg/kg/injection, schedule: Q01DX011 (ip), vehicle: carboxymethylcellulose (CMC)) was 33 % of control and the T/C (dose: 12.0 mg/kg/injection, schedule: Q01DX011 (ip), vehicle: carboxymethylcellulose (CMC)) was 22 % of control and 44 % of control. For the same compound, the T/C (dose: 15.0 mg/kg/injection, schedule: Q01DX011 (ip), vehicle: carboxymethylcellulose (CMC)) was 29 % of control.
`CC(C)=CC1C(C(=O)OCc2ccc(C)cc2C)C1(C)C` (stereo not drawn) was tested, and the T/C (dose: 87.5 mg/kg/injection, schedule: Q01DX011 (ip), vehicle: carboxymethylcellulose (CMC)) was 107 % of control, the T/C (dose: 175.0 mg/kg/injection, schedule: Q01DX011 (ip), vehicle: carboxymethylcellulose (CMC)) was 83 % of control and the T/C (dose: 350.0 mg/kg/injection, schedule: Q01DX011 (ip), vehicle: carboxymethylcellulose (CMC)) was 53 % of control. For the same compound, the T/C (dose: 500.0 mg/kg/injection, schedule: Q01DX011 (ip), vehicle: carboxymethylcellulose (CMC)) was 46 % of control.
